By IC50 is commonly meant the concentration that inhibits the measured activity by half. As usually defined, the pIC50 is the IC50 on a negative log10 scale, so that one unit is a factor of ten.

The text below walks through data of patent US20260234150A1, “COMPOUND FOR INHIBITING NLRP3, PREPARATION METHOD, AND USE” (DOVETREE MEDICINES UNUS, INC., priority 2023, published 2026).

pIC50: −log10 of the molar value. Like-named read-outs stand apart in the source and are kept apart here.

One experiment has as its target T1, CYP3A4 (Homo sapiens, UniProt P08684).
T1 construct: 0.05 mg/mL liver microsome (BioIVT, IHG) phosphate buffer solution; tissue BioIVT IHG; host or cells: human liver microsomes
The experiment can be described thus: CYP450 enzyme inhibition in human liver microsomes, CYP3A4. The format is in vitro ADME. The procedure:
(§1) This experiment incubates the compound, liver microsomes and different CYP subtype enzyme substrates in a 37° C. water bath to measure the amount of substrate metabolites produced and evaluate the inhibitory effect of the compound of the present disclosure on CYP enzymes based on the IC50 value.
(§2) i. The compound was diluted to 0, 0.02 mM, 0.06 mM, 0.2 mM, 0.6 mM, 2 mM and 6 mM concentrations with DMSO (Aladdin, catalog number: D103273-500 ml).
(§3) ii. The enzyme substrate solutions of each CYP subtype were prepared by phosphate buffer (sigma: V900050-500G).
(§4) iii. Sample incubation. […] After centrifugation at 4000 rpm and 4° C. for 40 min, the supernatant was diluted with pure water according to the response of the substrate metabolites and then detected by UPLC-MS/MS (Sciex, Q-Trap 4500). […]
(§5) The inhibitory effect of the compound on each P450 enzyme in human liver microsomes was calculated as the percentage of reduced metabolite formation compared with the non-inhibitory control (i.e., blank DMSO). The IC50 value for each P450 enzyme in human liver microsomes was calculated using the logarithm of the remaining activity and the inhibitor concentration using Graphpad Prism software. […]
For orientation: Liver microsomes are vesicles of endoplasmic reticulum, rich in cytochrome P450 enzymes.

The next experiment has as its target T2, hERG ion channel (Homo sapiens, UniProt Q12809).
T2 construct: host or cells: HEK293
Briefly: hERG ion channel inhibition, manual patch clamp in HEK293 cells. The format is cell-based. The note with it: HEK293 cells stably expressing hERG, read-out: hERG(IC50, manupatch). The procedure: This experiment used manual patch clamp electrophysiology to detect the inhibitory effect of compounds on hERG ion channels, and evaluated cardiac safety based on the single concentration inhibition rate or IC50 size of the compounds.
The cells used in this experiment are HEK293 cell lines transfected with hERG cDNA and stably expressing hERG channels (#60187, provided by BPS, P3-P23 generations are used for experimental research). Cells were cultured in a medium containing the following components: MEM medium, 10% (v/v) inactivated fetal bovine serum, 1 mM sodium pyruvate, […] geneticin, 0.1 mM non-essential amino acids, and 100 U penicillin-streptomycin. HEK293 hERG cells were grown in culture flasks containing the above culture medium and cultured in an incubator at 37° C. and 5% CO2. […]
The electrophysiological experiments were performed by a manual patch clamp system (HEKAEPC-10 signal amplifier and digital conversion system, purchased from HEKA Electronics, Germany) to record the whole-cell current. […] After the hERG current recorded in the above steps reaches stability under continuous perfusion of extracellular fluid in the recording tank, different concentrations of the test compound can be perfused until the inhibitory effect of the drug on the hERG current reaches a stable state. […]
A general note: The hERG channel carries a current that helps repolarise heart muscle cells.

A further experiment addresses T3, CYP2D6 (Homo sapiens, UniProt P10635).
T3 construct: 0.05 mg/mL liver microsome (BioIVT, IHG) phosphate buffer solution; tissue BioIVT IHG; host or cells: human liver microsomes
The experiment can be described thus: CYP450 enzyme inhibition in human liver microsomes, CYP2D6. The format is in vitro ADME. As to conditions: substrate Dextromethorphan, read-out: Inhibitory activity IC50 (μM) CYP2D6. The procedure: as §1, §2, §3, §4, §5

T1 sequence (P08684 whole entry): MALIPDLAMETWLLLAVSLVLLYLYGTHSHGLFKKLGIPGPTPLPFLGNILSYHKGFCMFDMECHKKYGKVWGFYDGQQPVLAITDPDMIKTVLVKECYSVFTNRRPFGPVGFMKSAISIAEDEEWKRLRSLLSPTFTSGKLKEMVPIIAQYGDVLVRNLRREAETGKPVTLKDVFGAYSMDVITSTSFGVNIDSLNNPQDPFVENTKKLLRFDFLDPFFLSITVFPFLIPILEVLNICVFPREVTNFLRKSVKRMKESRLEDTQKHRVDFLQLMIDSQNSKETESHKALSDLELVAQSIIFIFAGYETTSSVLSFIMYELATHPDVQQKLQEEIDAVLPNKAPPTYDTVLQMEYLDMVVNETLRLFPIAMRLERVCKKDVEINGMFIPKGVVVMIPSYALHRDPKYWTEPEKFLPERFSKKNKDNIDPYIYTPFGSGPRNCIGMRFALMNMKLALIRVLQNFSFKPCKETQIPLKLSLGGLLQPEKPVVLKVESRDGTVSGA
T3 sequence (P10635 whole entry): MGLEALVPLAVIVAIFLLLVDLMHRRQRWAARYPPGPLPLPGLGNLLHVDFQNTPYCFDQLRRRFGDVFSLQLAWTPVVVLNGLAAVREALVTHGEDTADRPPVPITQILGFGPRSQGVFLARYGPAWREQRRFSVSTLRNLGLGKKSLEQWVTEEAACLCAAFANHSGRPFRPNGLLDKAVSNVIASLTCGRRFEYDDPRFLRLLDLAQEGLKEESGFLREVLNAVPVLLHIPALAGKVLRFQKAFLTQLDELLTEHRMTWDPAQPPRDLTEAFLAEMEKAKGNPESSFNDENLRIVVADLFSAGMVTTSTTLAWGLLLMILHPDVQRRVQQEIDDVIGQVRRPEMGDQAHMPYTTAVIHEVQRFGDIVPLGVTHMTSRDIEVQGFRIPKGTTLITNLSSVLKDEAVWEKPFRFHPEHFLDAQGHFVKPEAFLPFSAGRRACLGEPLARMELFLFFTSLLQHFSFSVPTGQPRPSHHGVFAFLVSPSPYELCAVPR
T2 sequence (Q12809 whole entry): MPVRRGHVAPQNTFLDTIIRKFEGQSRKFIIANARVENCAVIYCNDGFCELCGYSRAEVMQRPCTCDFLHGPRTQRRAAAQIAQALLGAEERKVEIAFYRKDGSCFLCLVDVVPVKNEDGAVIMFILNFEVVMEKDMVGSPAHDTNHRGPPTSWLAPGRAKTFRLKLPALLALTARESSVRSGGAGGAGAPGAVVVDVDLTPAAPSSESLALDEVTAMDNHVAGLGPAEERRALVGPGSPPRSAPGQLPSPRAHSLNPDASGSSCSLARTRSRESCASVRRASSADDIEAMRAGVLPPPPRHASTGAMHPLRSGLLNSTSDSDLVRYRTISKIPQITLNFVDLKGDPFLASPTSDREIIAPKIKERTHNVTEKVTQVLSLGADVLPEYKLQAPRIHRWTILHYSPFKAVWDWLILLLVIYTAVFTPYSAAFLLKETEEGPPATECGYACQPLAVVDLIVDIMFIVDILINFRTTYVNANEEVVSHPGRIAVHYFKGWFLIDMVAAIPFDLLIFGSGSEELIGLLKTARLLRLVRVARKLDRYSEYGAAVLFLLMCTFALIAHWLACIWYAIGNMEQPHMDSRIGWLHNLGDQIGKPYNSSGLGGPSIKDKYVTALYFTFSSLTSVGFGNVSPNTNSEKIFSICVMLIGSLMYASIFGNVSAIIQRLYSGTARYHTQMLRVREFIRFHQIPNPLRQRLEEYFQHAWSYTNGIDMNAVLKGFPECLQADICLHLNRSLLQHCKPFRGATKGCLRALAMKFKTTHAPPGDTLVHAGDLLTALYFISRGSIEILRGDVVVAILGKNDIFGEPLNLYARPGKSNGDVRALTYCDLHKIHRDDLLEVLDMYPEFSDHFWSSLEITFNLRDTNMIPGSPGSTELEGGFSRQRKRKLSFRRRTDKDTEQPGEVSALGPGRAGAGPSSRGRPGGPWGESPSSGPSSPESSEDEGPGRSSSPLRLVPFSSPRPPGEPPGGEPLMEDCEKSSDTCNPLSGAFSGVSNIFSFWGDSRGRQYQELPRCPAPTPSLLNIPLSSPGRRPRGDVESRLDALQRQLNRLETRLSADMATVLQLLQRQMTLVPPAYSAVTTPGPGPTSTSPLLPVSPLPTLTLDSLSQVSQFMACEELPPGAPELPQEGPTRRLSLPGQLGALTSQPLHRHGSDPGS

As to `CC(=O)N1CCOC[C@H]1CNc1nc2nc(-c3c(C)cc(C(F)(F)F)cc3O)ccc2o1` [Compound 111], the IC50 is 28.7 µM on CYP3A4 (substrate Midazolam, read-out: Inhibitory activity IC50 (μM) CYP3A4-M); over 30 µM at CYP3A4 (substrate Testosterone, read-out: Inhibitory activity IC50 (μM) CYP3A4-T); over 30 µM at CYP2D6. For the same compound, on hERG ion channel, the negative logarithm of the IC50 (pIC50) is under 4.52.
